Tests used:
[1] = system: COS7 cells; test: Cell viability by trypan blue exclusion; type: cell-based, monkey; conditions: LM-2 medium supplement; percent ± SD of viable cells (n = 6)
Source text: (§1) Unnatural amino acids frequently are toxic to cells. To find out if this is the case for photo-amino acids of the invention, we monitored in COS7 cells protein biosynthesis by incorporation of [^3H]Phe and viability by trypan blue exclusion of cells grown in the presence or absence of the photo-amino acids photo-Leu, photo-Met and photo-Ile. Due to the lack of two essential amino acids in the growth medium, protein biosynthesis is reduced to about 65% of that in a full growth medium. […] Although cells grew slightly slower than in full growth medium, viability (Table 2) and cell morphology (not shown) were unaffected.

[2] = system: COS7 cells; test: Protein biosynthesis by incorporation of [3H]Phe; type: cell-based, monkey
Source text: as §1

[3] = system: Insig-1 and PGRMC1; test: Photo-crosslinking of Insig-1 and PGRMC1 with immunoprecipitation and western blotting; type: cell-based, human; conditions: COS7 cells, UV-irradiated, IP anti-HA, blot anti-myc
Source text: Cells were UV-irradiated or not irradiated as indicted, lysed and subjected to immunoprecipitation (IP) with anti-HA or anti-myc antibodies as indicated. Immunoprecipitated proteins were separated by SDS-PAGE and probed (WB) for the presence of cross-links with anti-myc antibody or anti-HA antibody as indicated. The small difference in apparent molecular weight of the cross-link is due to different percentage of SDS-PAGE gels used. The presence of uncrosslinked Insig-1 in the left lanes indicates non-covalent co-immunoprecipitation. The strong band in lanes 3 and 4 (IgG-HC) is crossreacting IgG heavy chain.
COS7 (monkey kidney) cells were grown in DMEM high glucose (Gibco no. 11995; with L-glutamine and Na-pyruvate)+10% FCS. […]
The methods of the invention have been applied to the study of protein-protein interactions between membrane proteins. […] To detect the cross-linked proteins, detergent extracts were immunoprecipitated for PGRMC1 with anti-HA antibody and precipitates analyzed for Insig-1 by western blotting with anti-myc antibody. If cells were grown in the absence of photo-Met, only a small amount of co-immunoprecipitated Insig-1, but no cross-linked band was detected (FIG. 6a, lane 2). […] An identical band was detected using the inverted order of detection, i.e. immunoprecipitation with anti-myc followed by blotting with anti-HA antibody (FIG. 6a, lane 3). […]

[4] = system: COS7 cells; test: Cell viability after UV irradiation by trypan blue exclusion; type: cell-based, monkey
Description: COS7 (monkey kidney) cells were grown in DMEM high glucose (Gibco no. 11995; with L-glutamine and Na-pyruvate)+10% FCS. Typically, 3 cm2 of cells are needed for a cross-linking experiment with detection by western blotting. At about 70%, medium was replaced by LM-4 (DMEM lacking Met, Leu, Ile and Val and phenol red, supplemented with 5% dialyzed FCS) or by LM-2 (LM-4+1 mM of each Ile and Val). Photo-amino acids were added to a final concentration of 4 mM photo-Leu and photo-Ile, 1.7 mM photo-Met and cells were cultivated for further 22 h followed by washing with PBS and UV-irradiation using a 200 W high pressure mercury lamp (Oriel Photomax) with a glass filter to remove wavelengths shorter 310 nm. The samples were placed at a distance of 38 cm to the light source, corresponding to a illuminated area of 105 mm diameter. […] We used an irradiation time 1-3 min for experiments with living cells. […] Lysis of cells, SDS-PAGE and western blotting were done as described^33. For immunoprecipitation, cells were lysed in 20 mM Hepes/NaOH pH 7.4, 100 mM NaCl, 5 mM EDTA, 1% Triton X 100, 0.5% sodium deoxycholate, the lysate was cleared with protein-A beads and incubated with beads that were preincubated with polyclonal anti-myc or anti-HA antibody. Beads were collected and washed three times each with 20 mM Hepes/NaOH pH 7.25, 0.5% CHAPS and with 100 mM Tris-HCl pH 8.3, 150 mM NaCl, 2 mM EDTA, 0.1% w/v SDS, 0.5% w/v Nonidet P40, 0.5% w/v sodiumdeoxycholate. Proteins were eluted from beads by heating with reducing SDS-PAGE sample buffer.
as §1

[5] = system: caveolin-1; test: Photo-crosslinking of transfected caveolin-1 in COS7 cells; type: cell-based, human; conditions: irradiated samples, COS7 cells in LM-4
Description: FIG. 3: Photo-crosslinking induced by photo-amino acids. COS7 cells (panels a,b) or HeLa cells (panel c) were grown in LM-4 (panel a) or LM-2 (panels b,c) in the absence or presence of L-photo-Leu (pL), L-photo-Met (pM) or DL-photo-Ile (pl) or mixtures of them (pLM or PLMI) followed by UV irradiation (+) or no irradiation (−). cross-linked products formed after UV-irradiation were detected by SDS-PAGE followed by western blotting using (a) anti-caveolin 1 to detect overexpressed caveolin 1, (b) anti-stomatin to detect endogenous stomatin or (c) anti-EEA1 to detect endogenous EEA1. In panel b, lanes 8 and 9 show cross-linking with two different concentrations of the chemical cross-linker DSS for comparison of cross-linking efficiency. In panel c, photocrosslinking of endogenous EEA1 by photo-Leu and photo-Met is compared to chemical cross-linking using DSS or para-formaldehyde (PFA) as indicated. Note that chemical cross-linking leads to protein aggregates that are not resolvable by SDS-PAGE while photocrosslinking identifies more than six discrete cross-linked bands.
COS7 (monkey kidney) cells were grown in DMEM high glucose (Gibco no. 11995; with L-glutamine and Na-pyruvate)+10% FCS. Typically, 3 cm2 of cells are needed for a cross-linking experiment with detection by western blotting. At about 70%, medium was replaced by LM-4 (DMEM lacking Met, Leu, Ile and Val and phenol red, supplemented with 5% dialyzed FCS) or by LM-2 (LM-4+1 mM of each Ile and Val). Photo-amino acids were added to a final concentration of 4 mM photo-Leu and photo-Ile, 1.7 mM photo-Met and cells were cultivated for further 22 h followed by washing with PBS and UV-irradiation using a 200 W high pressure mercury lamp (Oriel Photomax) with a glass filter to remove wavelengths shorter 310 nm. The samples were placed at a distance of 38 cm to the light source, corresponding to a illuminated area of 105 mm diameter. […] We used an irradiation time 1-3 min for experiments with living cells. […] Lysis of cells, SDS-PAGE and western blotting were done as described^33. […]

[6] = system: COS7 cells; test: Cell viability after UV irradiation by trypan blue exclusion; type: cell-based, monkey; remark: listed apart in the source

## CC1(CCC(N)C(=O)O)N=N1 [photo-Met, L-2-amino-5,5′-azi-hexanoic acid]
[1]
  Cell viability: 99.8 ± 0.1%
[2]; LM-2 medium supplement, value in full DMEM medium set to 100, average ± SD of triplicate
  Protein synthesis: 76.0 ± 6.4
[2]; addition to LM-2 medium
  effect on protein biosynthesis: increased protein biosynthesis
[3]
  Insig-1×PGRMC1 cross-linked band: a strong band appeared
[4]; 1 min UV
  Cell viability: 99.4 ± 0.5%
[4]; 1 min UV + 1 h chase
  Cell viability: 96.1 ± 1.3%
[4]; 3 min UV
  Cell viability: 99.5 ± 0.4%
[4]; 3 min UV + 1 h chase
  Cell viability: 91.9 ± 6.8%
[4]; no UV + 1 h chase at 37 degree Celsius in PBS
  Cell viability: 99.4 ± 0.4%
[4]; no UV, percent ± SD of viable cells
  Cell viability: 99.8 ± 0.3%
[5]
  formation of covalent caveolin dimers upon UV irradiation: significant formation of a cross-linked dimer
[6]; 10 min UV
  Cell viability: 99.4 ± 0.3%
[6]; 10 min UV + 1 h chase
  Cell viability: 91.9 ± 1.4%
[6]; 30 min UV
  Cell viability: 98.7 ± 0.4%
[6]; 30 min UV + 1 h chase
  Cell viability: 17.4 ± 5.3%

From patent US20090211893A1, “Photo-Activatable Amino Acids” (priority 2005, published 2009)
